Entries after “also recorded” stand apart in the source; their conditions may differ. Non-standard residues stand in square brackets, D forms with d. Residues, ends and D or L forms follow the SMILES beside them. Nle = CCCC[C@H](N)C(=O)O
Tests used:
661W cells [1] = assay: Calcium-induced mitochondrial damage assay (IBMX, OCR on Seahorse XF24); type: cell-based, mouse; details: pretreatment with 1 μM for 1 h prior to addition of IBMX
Procedure: 32. FIG. 21. Secondary screening of neuroprotective agents discovered from library screening. The 661W cells were pretreated for 1 h with lead compounds, CB10-CB12 (1 μM), prior to treatment with 600 μM IBMX. The basal and uncoupled OCR rates were measured.
(§1) 257. As shown in FIG. 1 and FIG. 2 below, compounds CB11, CB11a, CB11b, CB11c, CB11d and IBMX (see FIG. 1); compounds CB12, CB12a, CB12b, CB12c, CB12d and IBMX (see FIG. 2) were tested against the calcium-induced mitochondrial damage assay. IBMX is a membrane-permeable inhibitor of β-phosphodiesterase which results in a buildup of cGMP. An excess of cGMP increases the number of cGMP-gated cation channels in an open configuration, allowing an influx of Ca2+ into the cell, leading to mitochondrial damage and eventual cell death.
274. […] A higher stringency for hit selection than is commonly used was performed to avoid the less productive process of filtering through a large number of poor leads. It is notable that the complete ChemBridge library contains over 700,000 molecules that are searchable based on chemical structure, physicochemical properties, etc. To identify the active species present in the initial pool of 12 compounds were screened and then chemical similarity searches on the larger 700,000 member library was performed to identify other molecules that define pharmacophores. This strategy has more efficiently lead to agents that block retinal degeneration. Also, this strategy enabled quick identification of a small number of agents that that were moved into more sophisticated cellular and physiological models so as to better validate the mechanisms. For example, in the high-throughput screen a very toxic, non-specific calcium ionophore assay was used which gives a rather broad readout of cell “viability”. In the secondary assays the specificity and stringency were increased via use of more specific calcium stressor, 3-isobutyl-1-methylxanthine (IBMX) and a more relevant metabolic read-out, loss of respiratory capacity as measured from the attenuation of the uncoupled respiratory rate as measured with the Seahorse instrument. This assay format was used to evaluate the 12 initial lead compounds and are pleased to report that several of these agents do indeed protect against loss in respiratory capacity due to IBMX exposure.

661W cells [2] = assay: XF24 assay of stressor effects on respiratory capacity (OCR, FCCP response); type: cell-based, mouse; details: 661W cells treated with 1 μM IBMX for 20 min
661W cells [3] = assay: as above; type: cell-based, mouse; details: for respiratory / mitochondrial capacity (FCCP-uncoupled OCR): IBMX 1.0 mM in FIG. 19; for mitochondrial capacity measured from the FCCP response: 30 min after treatment
Procedure: (§2) 28. FIG. 17. Calcium and oxidative stress attenuate mitochondrial capacity. Shown are 661W cell OCR responses to 1 μM FCCP after treatment with listed concentrations of (A) A23187 and (B) tBuOOH. In A OCR rates are given as pmol/min, in B the rates for each well have been normalized to the basal rates measured prior to FCCP (which standardizes comparisons between data measured on different days). 661W cells analyzed by XF24 were incubated for 24 h and viability determined using ethidium bromide/acridine orange. Images of cells treated with (C) 1 μM A23187 and (D) control represent 47% and >95% viability.
30. FIG. 19. Mild calcium or oxidative stress reduces metabolic capacity in a photoreceptor cell line. (Calcium stress, left panel) 661W cells were treated with vehicle control (dark blue) or 1.0 mM IBMX (turquoise), followed by treatment with 1 μM FCCP. […] (Oxidant stress, right panel)
as §1
268. In preliminary experiments the energy metabolism of 661W cells using the XF24. 661W cells were analyzed and produce large amounts of lactic acid from glucose oxidation [Winkler B S, Starnes C A, Sauer M W, Firouzgan Z, Chen S C: Cultured retinal neuronal cells and Muller cells both show net production of lactate. Neurochem Int 2004, 45(2-3):311-320]. […] To examine whether the metabolic responses were predictive of cell death due to calcium or oxidant stress, the cells were exposed to calcium ionophore A23187 or the oxidant tert-butylhydroperoxide (tBuOOH) on the XF24 instrument for 30 min after which some of the treated cells were exposed to the protonophore FCCP to uncouple the mitochondrial membrane potential. The uncoupling attenuates ATP production and causes the mitochondria to dramatically increase oxygen consumption in an attempt to recover the lost ATP production capacity. The increase in oxygen consumption is a measure of the total mitochondrial capacity or reserve.
271. In preliminary studies, the direct oxidant tert-butylhydroperoxide (tBuOOH) was used to induce oxidant stress and the agent A23187, a calcium ionophore that binds to and carries Ca^2+ across cellular membranes, including mitochondrial membranes (Abbott, B. J., Fukuda, D. S., Dorman, D. E., Occolowitz, J. L., Debono, M., and Farhner, L. (1979) Antimicrob. Agents Chemother. 16(6), 808-812). Because A23187 rapidly increases intracellular and intra-mitochondrial calcium concentrations, it triggers Ca^2+-mediated programmed cell death (2. Orrenius, S., Zhivotovsky, B., and Nicotera, P. (2003) Nat. Rev. Mol. Cell. Biol. 4, 552-565; Hajnóczky, G., Davies, E., and Madesh, M. (2003) Biochem. Biophys. Res. Commun. 304, 445-454). One could argue that these two agents are akin to hammers rather than the more subtle, chronic oxidant and calcium stressors seen in degenerative processes. The XF24 assay was validated using two more physiologically relevant stressors. To induce calcium stress, 3-Isobutyl-1-methyl xanthine (IBMX), a non-selective phosphodiesterase (PDE) inhibitor was used (4. Zhang, X., Feng, Q., and Cote, R. H. (2005) Invest. Ophthalmol. Vis. Sci. 46(9), 3060-3066). Inhibition of PDEs causes increases in the intracellular cAMP and cGMP concentrations leading to slow activation cGMP-gated cation channels and an increase of Ca^2+ flux into the cell (5. Yarfitz, S., and Hurley, J. B. (1994) J. Biol. Chem. 269(20), 14329-14332; Koutalos, Y., and Yau, K.-W. (1996) Trends Neurosci. 19, 73-81). […]

661W cells [4] = assay: A23187 viability screen (MTS assay); type: cell-based, mouse; details: 50 μM, 1 μM A23187, 24 hours
Excerpt: 273. ChemBridge, Inc. has a large (>700,000) commercially available chemical library and a DIVERSet library was obtained, which is a subset of compounds selected for diversity and favorable drug-like properties. Because the DIVERSet library is much too large for lower throughput, high-content screens, single end-point assays amenable to high-throughput were developed and disclosed herein. […] A viability assay using treatments with A23187 to search for molecules in the library that protect from acute calcium toxicity was developed and disclosed herein. The concentration of A23187 was selected to give about 50% death and pools that protected against death were identified. The assay format was optimized and validated using calpeptin, a […] as a positive control. In brief, 661W cells were maintained in DMEM supplemented with 10% FBS. For the assay, 100 μL of 70,000 cells/mL cells were seeded into each well of 96 well plates using DMEM supplemented with 5% FBS. Cells were then allowed to grow to confluency for 48 hours. Library compounds were added in 2 μL containing 10 compounds at 20 μM each. Ionophore A23187 was then added in 1 μL for a final concentration of 1 μM and after 24 hours cells were analyzed for viability using the MTS assay according to the manufactures protocol (Promega CellTiter 96® Cat.#G5421). […]

rd1 photoreceptors = assay: rd1 mouse retinal organ culture assay (retina-RPE explants, photoreceptor row count); type: cell-based
[5] = Viability of stressor-treated cells by dye exclusion 24 h after treatment; type: cell-based; details: mouse; 661W cells; 1 μM A23187; incubated 24 h; ethidium bromide/acridine orange
Procedure: as §2
269. The cells were then returned to the incubator and analyzed for cell viability via dye exclusion 24 h after treatment (FIGS. 17C,D). […] In addition, the higher concentrations produced profound changes in metabolic phenotype as evidenced in the cell's responses to the uncoupler FFCP. […] In both cases, reduced OCR and ECAR values are predictive of cell death although at intermediate concentrations, where cell death is still occurring, the ECAR rates actually increase, particularly for tBuOOH treatments.

O=C(CC1(O)C(=O)N(CCc2ccccc2)c2ccccc21)c1cccnc1 (stereo not shown) [CB11b]
basal and maximal OCR (oxygen consumption rate) (661W cells [1]): improvement of both basal and maximal OCR

CC(=O)Nc1cccc(NC(=O)c2sc(-c3cccnc3)nc2C)c1 [CB12c]
basal and maximal OCR (oxygen consumption rate) (661W cells [1]): improvement of both basal and maximal OCR

CC(C)Cn1c(=O)n(C)c(=O)c2[nH]cnc21 [IBMX, 3-Isobutyl-1-methyl xanthine]
loss in metabolic capacity as measured from the FCCP response (661W cells [2]): ~50% | effect on basal respiration rates (661W cells [3]): little or no direct effect on basal respiration rates | basal and uncoupled OCR relative to untreated control (661W cells [3]; 600 μM IBMX): attenuates basal and uncoupled OCR | decrease in both basal and maximal (FCCP-uncoupled) respiratory capacity (661W cells [3]; 500-600 μM IBMX): ~50% | respiratory / mitochondrial capacity (FCCP-uncoupled OCR) (661W cells [3]): diminished respiratory capacity compared to control; also recorded: same types of loss in mitochondrial capacity

COC(=O)c1ccccc1NC(=O)c1sc(-c2cccnc2)nc1C [CB12b]
basal and maximal OCR (oxygen consumption rate) (661W cells [1]): improvement of both basal and maximal OCR

Cc1nc(-c2cccnc2)sc1C(=O)Nc1ccc(C(N)=O)cc1 [CB12d]
basal and maximal OCR (oxygen consumption rate) (661W cells [1]): improvement of both basal and maximal OCR

CCOC(=O)CN1C(=O)C(O)(CC(=O)c2ccccn2)c2ccccc21 (stereo not shown) [CB11d]
basal and maximal OCR (oxygen consumption rate) (661W cells [1]): improvement of both basal and maximal OCR

O=C(CC1(O)C(=O)N(CCc2ccccc2)c2ccc(Cl)cc21)c1ccccn1 (stereo not shown) [CB11c]
basal and maximal OCR (oxygen consumption rate) (661W cells [1]): improvement of both basal and maximal OCR

CCCC[C@@H](C=O)NC(=O)[C@H](CC(C)C)NC(=O)[C@H](CC(C)C)NC(C)=O [Calpain Inhibitor I] (Ac-Leu-Leu-[Nle]-aldehyde)
reversal of ionophore A23187 effects on viability (661W cells [4]): able to reverse ionophore effects

CC(C)(C)OO [tBuOOH, tert-butylhydroperoxide]
mitochondrial capacity measured from the FCCP response (661W cells [3]): significant loss of mitochondrial capacity

C[n+]1ccc(-c2cc[n+](C)cc2)cc1 [paraquat]
effect on basal respiration rates (661W cells [3]): little or no direct effect on basal respiration rates | respiratory / mitochondrial capacity (FCCP-uncoupled OCR) (661W cells [3]): same types of loss in mitochondrial capacity

CCCC[C@@H](C=O)NC(=O)[C@H](CC(C)C)NC(=O)OCc1ccccc1 [calpeptin]
rows of photoreceptors (average) (rd1 photoreceptors; rd1 mouse organ cultures exposed to 1 mM from P11 to P21): 3.3±0.3 rows of photoreceptors | rows of photoreceptors remaining at P21 (rd1 photoreceptors; rd1 retina-RPE sandwich cultures P10 through P21, quantified from images): about 3.5 rows

CNc1ccc2oc(C[C@H]3O[C@@]4(CC[C@H]3C)O[C@H]([C@H](C)C(=O)c3ccc[nH]3)[C@H](C)C[C@H]4C)nc2c1C(=O)O [A23187]
mitochondrial capacity measured from the FCCP response (661W cells [3]): significant loss of mitochondrial capacity | viability at 24 h, 1 μM [5]: 47%

— patent US20130137728A1, “Compositions and Methods for the Treatment of Degenerative Diseases” (MUSC Foundation For Research And Development, priority 2010, published 2013)
